Assay results from ChEMBL document CHEMBL5154747, “Discovery of new carbonic anhydrase IX inhibitors as anticancer agents by toning the hydrophobic and hydrophilic rims of the active site to encounter the dual-tail approach” (Eur J Med Chem, 2022).

Columns and labels:
Assay type in all cases: functional
Conditions in all cases: read-out: GI
EKVX = assay: Anticancer activity against human EKVX cells assessed as cell growth inhibition at 10 uM incubated for 48 hrs by SRB assay relative to control
SK-MEL-5 = assay: Anticancer activity against human SK-MEL-5 cells assessed as cell growth inhibition at 10 uM incubated for 48 hrs by SRB assay relative to control
SK-MEL-28 = assay: Anticancer activity against human SK-MEL-28 cells assessed as cell growth inhibition at 10 uM incubated for 48 hrs by SRB assay relative to control
SNB-19 = assay: Anticancer activity against human SNB-19 cells assessed as cell growth inhibition at 10 uM incubated for 48 hrs by SRB assay relative to control
T47D = assay: Anticancer activity against human T47D cells assessed as cell growth inhibition at 10 uM incubated for 48 hrs by SRB assay relative to control
NCI-H522 = assay: Anticancer activity against human NCI-H522 cells assessed as cell growth inhibition at 10 uM incubated for 48 hrs by SRB assay relative to control
Malme-3M = assay: Anticancer activity against human Malme-3M cells assessed as cell growth inhibition at 10 uM incubated for 48 hrs by SRB assay relative to control
CAKI-1 = assay: Anticancer activity against human CAKI-1 cells assessed as cell growth inhibition at 10 uM incubated for 48 hrs by SRB assay relative to control
A549 = assay: Anticancer activity against human A549 cells assessed as cell growth inhibition at 10 uM incubated for 48 hrs by SRB assay relative to control
HOP-92 = assay: Anticancer activity against human HOP-92 cells assessed as cell growth inhibition at 10 uM incubated for 48 hrs by SRB assay relative to control
Hs-578T = assay: Anticancer activity against human Hs-578T cells assessed as cell growth inhibition at 10 uM incubated for 48 hrs by SRB assay relative to control
SF-268 = assay: Anticancer activity against human SF-268 cells assessed as cell growth inhibition at 10 uM incubated for 48 hrs by SRB assay relative to control
MDA-MB-468 = assay: Anticancer activity against human MDA-MB-468 cells assessed as cell growth inhibition at 10 uM incubated for 48 hrs by SRB assay relative to control
OVCAR-4 = assay: Anticancer activity against human OVCAR-4 cells assessed as cell growth inhibition at 10 uM incubated for 48 hrs by SRB assay relative to control
NCI-H23 = assay: Anticancer activity against human NCI-H23 cells assessed as cell growth inhibition at 10 uM incubated for 48 hrs by SRB assay relative to control
BT-549 = assay: Anticancer activity against human BT-549 cells assessed as cell growth inhibition at 10 uM incubated for 48 hrs by SRB assay relative to control
COLO 205 = assay: Anticancer activity against human COLO 205 cells assessed as cell growth inhibition at 10 uM incubated for 48 hrs by SRB assay relative to control
SF-295 = assay: Anticancer activity against human SF-295 cells assessed as cell growth inhibition at 10 uM incubated for 48 hrs by SRB assay relative to control
HL-60(TB) = assay: Anticancer activity against human HL-60(TB) cells assessed as cell growth inhibition at 10 uM incubated for 48 hrs by SRB assay relative to control
OVCAR-8 = assay: Anticancer activity against human OVCAR-8 cells assessed as cell growth inhibition at 10 uM incubated for 48 hrs by SRB assay relative to control
SW-620 = assay: Anticancer activity against human SW-620 cells assessed as cell growth inhibition at 10 uM incubated for 48 hrs by SRB assay relative to control
IGROV-1 = assay: Anticancer activity against human IGROV-1 cells assessed as cell growth inhibition at 10 uM incubated for 48 hrs by SRB assay relative to control
SK-MEL-2 = assay: Anticancer activity against human SK-MEL-2 cells assessed as cell growth inhibition at 10 uM incubated for 48 hrs by SRB assay relative to control
OVCAR-3 = assay: Anticancer activity against human OVCAR-3 cells assessed as cell growth inhibition at 10 uM incubated for 48 hrs by SRB assay relative to control
UACC-257 = assay: Anticancer activity against human UACC-257 cells assessed as cell growth inhibition at 10 uM incubated for 48 hrs by SRB assay relative to control
SNB-75 = assay: Anticancer activity against human SNB-75 cells assessed as cell growth inhibition at 10 uM incubated for 48 hrs by SRB assay relative to control
MDA-MB-435 = assay: Anticancer activity against human MDA-MB-435 cells assessed as cell growth inhibition at 10 uM incubated for 48 hrs by SRB assay relative to control
K562 = assay: Anticancer activity against human K562 cells assessed as cell growth inhibition at 10 uM incubated for 48 hrs by SRB assay relative to control
RPMI-8226 = assay: Anticancer activity against human RPMI-8226 cells assessed as cell growth inhibition at 10 uM incubated for 48 hrs by SRB assay relative to control
SK-OV-3 = assay: Anticancer activity against human SK-OV-3 cells assessed as cell growth inhibition at 10 uM incubated for 48 hrs by SRB assay relative to control
KM12 = assay: Anticancer activity against human KM12 cells assessed as cell growth inhibition at 10 uM incubated for 48 hrs by SRB assay relative to control
MOLT-4 = assay: Anticancer activity against human MOLT-4 cells assessed as cell growth inhibition at 10 uM incubated for 48 hrs by SRB assay relative to control
NCI-H322M = assay: Anticancer activity against human NCI-H322M cells assessed as cell growth inhibition at 10 uM incubated for 48 hrs by SRB assay relative to control
786-0 = assay: Anticancer activity against human 786-0 cells assessed as cell growth inhibition at 10 uM incubated for 48 hrs by SRB assay relative to control
RXF 393 = assay: Anticancer activity against human RXF 393 cells assessed as cell growth inhibition at 10 uM incubated for 48 hrs by SRB assay relative to control
HOP-62 = assay: Anticancer activity against human HOP-62 cells assessed as cell growth inhibition at 10 uM incubated for 48 hrs by SRB assay relative to control
MDA-MB-231 = assay: Anticancer activity against human MDA-MB-231 cells assessed as cell growth inhibition at 10 uM incubated for 48 hrs by SRB assay relative to control
A498 = assay: Anticancer activity against human A498 cells assessed as cell growth inhibition at 10 uM incubated for 48 hrs by SRB assay relative to control
NCI/ADR-RES = assay: Anticancer activity against human NCI/ADR-RES cells assessed as cell growth inhibition at 10 uM incubated for 48 hrs by SRB assay relative to control

Compound | inhibition of growth at 10 µM (EKVX) [%] | inhibition of growth at 10 µM (SK-MEL-5) [%] | inhibition of growth at 10 µM (SK-MEL-28) [%] | inhibition of growth at 10 µM (SNB-19) [%] | inhibition of growth at 10 µM (T47D) [%] | inhibition of growth at 10 µM (NCI-H522) [%] | inhibition of growth at 10 µM (Malme-3M) [%] | inhibition of growth at 10 µM (CAKI-1) [%] | inhibition of growth at 10 µM (A549) [%] | inhibition of growth at 10 µM (HOP-92) [%] | inhibition of growth at 10 µM (Hs-578T) [%] | inhibition of growth at 10 µM (SF-268) [%] | inhibition of growth at 10 µM (MDA-MB-468) [%] | inhibition of growth at 10 µM (OVCAR-4) [%] | inhibition of growth at 10 µM (NCI-H23) [%] | inhibition of growth at 10 µM (BT-549) [%] | inhibition of growth at 10 µM (COLO 205) [%] | inhibition of growth at 10 µM (SF-295) [%] | inhibition of growth at 10 µM (HL-60(TB)) [%] | inhibition of growth at 10 µM (OVCAR-8) [%] | further results
CCCCc1nc(/C=N/Nc2nc(Nc3ccccc3)nc(Nc3ccc(S(N)(=O)=O)cc3)n2)c(Cl)[nH]1 | < 10 | 24 | 28 | 69 | 85 | 58 | < 10 | < 10 | < 10 | 39 | 22 | 34 | 112 | 19 | < 10 | 52 | 27 | < 10 | < 10 | < 10 | inhibition of growth at 10 µM (SW-620): 24%; inhibition of growth at 10 µM (IGROV-1): < 10%; inhibition of growth at 10 µM (SK-MEL-2): 34%; inhibition of growth at 10 µM (OVCAR-3): 53%; inhibition of growth at 10 µM (UACC-257): < 10%; inhibition of growth at 10 µM (SNB-75): < 10%; inhibition of growth at 10 µM (MDA-MB-435): < 10%; inhibition of growth at 10 µM (K562): 62%; inhibition of growth at 10 µM (RPMI-8226): < 10%; inhibition of growth at 10 µM (SK-OV-3): < 10%; inhibition of growth at 10 µM (KM12): < 10%; inhibition of growth at 10 µM (MOLT-4): 58%; inhibition of growth at 10 µM (NCI-H322M): < 10%; inhibition of growth at 10 µM (786-0): < 10%; inhibition of growth at 10 µM (RXF 393): < 10%; inhibition of growth at 10 µM (HOP-62): < 10%; inhibition of growth at 10 µM (MDA-MB-231): 33%; inhibition of growth at 10 µM (A498): 10%; inhibition of growth at 10 µM (NCI/ADR-RES): < 10%
Cc1ccc(/C=N/Nc2nc(Nc3ccccc3)nc(Nc3ccc(S(N)(=O)=O)cc3)n2)cc1 | 21 | 23 | 24 | 22 | 45 | 10 | < 10 | 39 | 16 | > 10 | 37 | 12 | 35 | 30 | 23 | 23 | 16 | 42 | 24 | 30 | inhibition of growth at 10 µM (SW-620): < 10%; inhibition of growth at 10 µM (IGROV-1): 46%; inhibition of growth at 10 µM (SK-MEL-2): 22%; inhibition of growth at 10 µM (OVCAR-3): 39%; inhibition of growth at 10 µM (UACC-257): < 10%; inhibition of growth at 10 µM (SNB-75): 32%; inhibition of growth at 10 µM (MDA-MB-435): 30%; inhibition of growth at 10 µM (K562): 43%; inhibition of growth at 10 µM (RPMI-8226): 56%; inhibition of growth at 10 µM (SK-OV-3): < 10%; inhibition of growth at 10 µM (KM12): 34%; inhibition of growth at 10 µM (MOLT-4): 59%; inhibition of growth at 10 µM (NCI-H322M): > 10%; inhibition of growth at 10 µM (786-0): 53%; inhibition of growth at 10 µM (RXF 393): 102%; inhibition of growth at 10 µM (HOP-62): 13%; inhibition of growth at 10 µM (MDA-MB-231): 26%; inhibition of growth at 10 µM (A498): 45%; inhibition of growth at 10 µM (NCI/ADR-RES): < 10%
NS(=O)(=O)c1ccc(Nc2nc(N/N=C/c3ccc(C(F)(F)F)cc3)nc(Nc3ccccc3)n2)cc1 | 46 | 65 | 72 | 66 | 68 | 62 | 77 | 66 | 72 | 42 | 91 | 49 | 65 | 59 | 47 | 51 | 70 | 95 | 51 | 67 | inhibition of growth at 10 µM (SW-620): 45%; inhibition of growth at 10 µM (IGROV-1): 68%; inhibition of growth at 10 µM (SK-MEL-2): 71%; inhibition of growth at 10 µM (OVCAR-3): 88%; inhibition of growth at 10 µM (UACC-257): 60%; inhibition of growth at 10 µM (SNB-75): 58%; inhibition of growth at 10 µM (MDA-MB-435): 80%; inhibition of growth at 10 µM (K562): 82%; inhibition of growth at 10 µM (RPMI-8226): 105%; inhibition of growth at 10 µM (SK-OV-3): 44%; inhibition of growth at 10 µM (KM12): 78%; inhibition of growth at 10 µM (MOLT-4): 90%; inhibition of growth at 10 µM (NCI-H322M): 47%; inhibition of growth at 10 µM (786-0): 103%; inhibition of growth at 10 µM (RXF 393): 139%; inhibition of growth at 10 µM (HOP-62): 61%; inhibition of growth at 10 µM (MDA-MB-231): 73%; inhibition of growth at 10 µM (A498): 60%; inhibition of growth at 10 µM (NCI/ADR-RES): 12%
NS(=O)(=O)c1ccc(Nc2nc(N/N=C/c3c[nH]c4ccccc34)nc(Nc3ccccc3)n2)cc1 | 32 | 60 | 54 | 43 | 64 | 68 | 53 | 46 | 21 | 38 | 57 | 40 | 47 | 40 | 52 | 51 | 59 | 68 | 65 | 62 | inhibition of growth at 10 µM (SW-620): 50%; inhibition of growth at 10 µM (IGROV-1): 66%; inhibition of growth at 10 µM (SK-MEL-2): 32%; inhibition of growth at 10 µM (OVCAR-3): 73%; inhibition of growth at 10 µM (UACC-257): 36%; inhibition of growth at 10 µM (SNB-75): 29%; inhibition of growth at 10 µM (MDA-MB-435): 68%; inhibition of growth at 10 µM (K562): 77%; inhibition of growth at 10 µM (RPMI-8226): 105%; inhibition of growth at 10 µM (SK-OV-3): < 10%; inhibition of growth at 10 µM (KM12): 72%; inhibition of growth at 10 µM (MOLT-4): 80%; inhibition of growth at 10 µM (NCI-H322M): 45%; inhibition of growth at 10 µM (786-0): 58%; inhibition of growth at 10 µM (RXF 393): 125%; inhibition of growth at 10 µM (HOP-62): 36%; inhibition of growth at 10 µM (MDA-MB-231): 51%; inhibition of growth at 10 µM (A498): 48%; inhibition of growth at 10 µM (NCI/ADR-RES): < 10%
